Data as given in ChEMBL document CHEMBL3045812, “Synthesis of fatty acid Schiff base esters as potential antimicrobial and chemotherapeutic agents” (Med Chem Res, 2013).
Values after ≈ are worked out from the molar mass of the structure shown. Active and inactive are the calls of the source. The rule behind the calls is not given here.

How the values were obtained:
Raoultella planticola = experiment: Antibacterial activity against Raoultella planticola MTCC 530 at 1.4 to 300 ug/ml after 24 hr by microtiter broth dilution method; assay type: functional, organism-based
A549 = experiment: Cytotoxicity against Homo sapiens (human) A549 cells by tetrazolium-reduction assay; assay type: functional, cell-based
Candida albicans [1] = experiment: Antifungal activity against Candida albicans MTCC 183 after 24 hr by microtiter broth dilution method; assay type: functional; conditions: MTCC 183, 24 h
Candida albicans [2] = experiment: Antifungal activity against Candida albicans MTCC 854 after 24 hr by microtiter broth dilution method; assay type: functional
Pichia kudriavzevii = experiment: Antifungal activity against Pichia kudriavzevii MTCC 3020 after 24 hr by microtiter broth dilution method; assay type: functional
[Candida] aaseri [3] = Antifungal activity against Candida aaseri MTCC 1962 after 24 hr by microtiter broth dilution method; assay type: functional
Candida albicans [4] = experiment: Antifungal activity against Candida albicans MTCC 1637 after 24 hr by microtiter broth dilution method; assay type: functional
Staphylococcus aureus [5] = experiment: Antibacterial activity against Staphylococcus aureus MTCC 96 after 24 hr by microtiter broth dilution method; assay type: functional
MDA-MB-231 = experiment: Cytotoxicity against Homo sapiens (human) MDA-MB-231 cells by tetrazolium-reduction assay; assay type: functional, cell-based
Candida albicans [6] = experiment: Antifungal activity against Candida albicans MTCC 3017 after 24 hr by microtiter broth dilution method; assay type: functional
N2a = experiment: Cytotoxicity against Mus musculus (mouse) Neuro2a cells by tetrazolium-reduction assay; assay type: functional, cell-based
Candida albicans [7] = experiment: Antifungal activity against Candida albicans MTCC 227 after 24 hr by microtiter broth dilution method; assay type: functional; conditions: MTCC 227, 24 h
Bacillus subtilis = experiment: Antibacterial activity against Bacillus subtilis MTCC 121 after 24 hr by microtiter broth dilution method; assay type: functional
Candida albicans [8] = experiment: Antifungal activity against Candida albicans MTCC 7315 after 24 hr by microtiter broth dilution method; assay type: functional; conditions: MTCC 7315, 24 h
Candida albicans [9] = experiment: Antifungal activity against Candida albicans MTCC 3018 after 24 hr by microtiter broth dilution method; assay type: functional; conditions: MTCC 3018, 24 h
Nakaseomyces glabratus [10] = experiment: Antifungal activity against Candida glabrata MTCC 3019 after 24 hr by microtiter broth dilution method; assay type: functional
Candida albicans [11] = experiment: Antifungal activity against Candida albicans MTCC 3958 after 24 hr by microtiter broth dilution method; assay type: functional; conditions: MTCC 3958, 24 h
Candida parapsilosis [12] = experiment: Antifungal activity against Candida parapsilosis MTCC 1744 after 24 hr by microtiter broth dilution method; assay type: functional
Escherichia coli = experiment: Antibacterial activity against Escherichia coli MTCC 739 at 1.4 to 300 ug/ml after 24 hr by microtiter broth dilution method; assay type: functional, organism-based
Pichia sporocuriosa = experiment: Antifungal activity against Issatchenkia hanoiensis MTCC 4755 after 24 hr by microtiter broth dilution method; assay type: functional
Micrococcus luteus = experiment: Antibacterial activity against Micrococcus luteus MTCC 2470 at 1.4 to 300 ug/ml after 24 hr by microtiter broth dilution method; assay type: functional, organism-based
Pseudomonas aeruginosa = experiment: Antibacterial activity against Pseudomonas aeruginosa MTCC 2453 after 24 hr by microtiter broth dilution method; assay type: functional
Staphylococcus aureus [13] = experiment: Antibacterial activity against Staphylococcus aureus MLS16 MTCC 2940 after 24 hr by microtiter broth dilution method; assay type: functional
MCF7 = experiment: Cytotoxicity against Homo sapiens (human) MCF7 cells by tetrazolium-reduction assay; assay type: functional, cell-based
HepG2 = experiment: Cytotoxicity against Homo sapiens (human) HepG2 cells by tetrazolium-reduction assay; assay type: functional, cell-based
HeLa = experiment: Cytotoxicity against Homo sapiens (human) HeLa cells by tetrazolium-reduction assay; assay type: functional, cell-based
Candida albicans [14] = experiment: Antifungal activity against Candida albicans MTCC 227 at 1.4 to 300 ug/ml after 24 hr by microtiter broth dilution method; assay type: functional, organism-based
Candida albicans [15] = experiment: Antifungal activity against Candida albicans MTCC 3018 at 1.4 to 300 ug/ml after 24 hr by microtiter broth dilution method; assay type: functional, organism-based
Candida parapsilosis [16] = experiment: Antifungal activity against Candida parapsilosis MTCC 1744 at 1.4 to 300 ug/ml after 24 hr by microtiter broth dilution method; assay type: functional, organism-based
Candida albicans [17] = experiment: Antifungal activity against Candida albicans MTCC 1637 at 1.4 to 300 ug/ml after 24 hr by microtiter broth dilution method; assay type: functional, organism-based
Candida albicans [18] = experiment: Antifungal activity against Candida albicans MTCC 854 at 1.4 to 300 ug/ml after 24 hr by microtiter broth dilution method; assay type: functional, organism-based
Nakaseomyces glabratus [19] = experiment: Antifungal activity against Candida glabrata MTCC 3019 at 1.4 to 300 ug/ml after 24 hr by microtiter broth dilution method; assay type: functional, organism-based
Candida albicans [20] = experiment: Antifungal activity against Candida albicans MTCC 7315 at 1.4 to 300 ug/ml after 24 hr by microtiter broth dilution method; assay type: functional, organism-based
Candida albicans [21] = experiment: Antifungal activity against Candida albicans MTCC 183 at 1.4 to 300 ug/ml after 24 hr by microtiter broth dilution method; assay type: functional, organism-based
Candida albicans [22] = experiment: Antifungal activity against Candida albicans MTCC 3017 at 1.4 to 300 ug/ml after 24 hr by microtiter broth dilution method; assay type: functional, organism-based
[Candida] aaseri [23] = Antifungal activity against Candida aaseri MTCC 1962 at 1.4 to 300 ug/ml after 24 hr by microtiter broth dilution method; assay type: functional, organism-based
Candida albicans [24] = experiment: Antifungal activity against Candida albicans MTCC 3958 at 1.4 to 300 ug/ml after 24 hr by microtiter broth dilution method; assay type: functional, organism-based
[25] = Homo sapiens, MCF7, read-out: IC50

MIC (Staphylococcus aureus [5]; MTCC 96, 24 h) [µg/mL]	MIC (Staphylococcus aureus [13]; MLS16 MTCC 2940, 24 h) [µg/mL]	MIC (Bacillus subtilis)	MIC (Pseudomonas aeruginosa)	SMILES	Activity (Raoultella planticola)	Activity (A549)	IC50 (MDA-MB-231) [µM]	Activity (N2a)	Activity (Escherichia coli)	Activity (Micrococcus luteus)	IC50 (MCF7; [25]) [µM]	Activity (HepG2)	Activity (HeLa)	Activity (Candida albicans [14])	Activity (Candida albicans [15])	Activity (Candida parapsilosis [16])	Activity (Candida albicans [17])	Activity (Candida albicans [18])	Activity (Nakaseomyces glabratus [19])	Activity (Candida albicans [20])	also measured
75 (≈ 177 µM)	75 (≈ 177 µM)	inactive	inactive	CCCCCCCCCCCCCC(=O)Oc1ccc(/C=N/Cc2cccnc2)cc1	inactive	inactive	26.6	inactive	inactive	inactive		inactive	inactive								MIC (Candida albicans [1]): 300 µg/mL (≈ 710 µM); MIC (Candida albicans [2]; MTCC 854, 24 h): 300 µg/mL (≈ 710 µM); MIC (Pichia kudriavzevii): inactive; MIC ([Candida] aaseri [3]): inactive; MIC (Candida albicans [4]; MTCC 1637, 24 h): 300 µg/mL (≈ 710 µM); MIC (Candida albicans [6]; MTCC 3017, 24 h): 300 µg/mL (≈ 710 µM); MIC (Candida albicans [7]): 300 µg/mL (≈ 710 µM); MIC (Candida albicans [8]): 300 µg/mL (≈ 710 µM); MIC (Candida albicans [9]): 300 µg/mL (≈ 710 µM); MIC (Nakaseomyces glabratus [10]): inactive; MIC (Candida albicans [11]): 300 µg/mL (≈ 710 µM); MIC (Candida parapsilosis [12]): inactive; MIC (Pichia sporocuriosa): inactive; IC50 (MCF7; mcf7): Not Active
150 (≈ 380 µM)	150 (≈ 380 µM)	inactive	inactive	CCCCCCCCCCCC(=O)Oc1ccc(/C=N/Cc2cccnc2)cc1	inactive	inactive	18.9	inactive	inactive	inactive	17.6	inactive	inactive	inactive	inactive	inactive	inactive	inactive	inactive	inactive	Activity (Candida albicans [21]): inactive; Activity (Candida albicans [22]): inactive; Activity ([Candida] aaseri [23]): inactive; Activity (Candida albicans [24]): inactive
		inactive	inactive	CCCCCCCCCCCCCCCC(=O)Oc1ccc(/C=N/Cc2cccnc2)cc1	inactive	inactive		inactive	inactive	inactive		inactive	inactive	inactive	inactive	inactive	inactive	inactive	inactive	inactive	MIC (Staphylococcus aureus [5]): inactive; Activity (Candida albicans [21]): inactive; Activity (Candida albicans [22]): inactive; MIC (Staphylococcus aureus [13]): inactive; Activity ([Candida] aaseri [23]): inactive; Activity (Candida albicans [24]): inactive

More lines, now with the values behind:

SMILES	MIC (Staphylococcus aureus [5]; MTCC 96, 24 h) [µg/mL]	MIC (Staphylococcus aureus [13]; MLS16 MTCC 2940, 24 h) [µg/mL]	MIC (Bacillus subtilis)	MIC (Pseudomonas aeruginosa)	Activity (Raoultella planticola)	Activity (A549)	IC50 (MDA-MB-231) [µM]	Activity (N2a)	Activity (Escherichia coli)	Activity (Micrococcus luteus)	IC50 (MCF7; [25]) [µM]	Activity (HepG2)	Activity (HeLa)	Activity (Candida albicans [14])	Activity (Candida albicans [15])	Activity (Candida parapsilosis [16])	Activity (Candida albicans [17])	Activity (Candida albicans [18])	Activity (Nakaseomyces glabratus [19])	Activity (Candida albicans [20])	also measured
CCCCCCCC(=O)Oc1ccc(/C=N/Cc2cccnc2)cc1	37.5 (≈ 111 µM)	300 (≈ 886 µM)			inactive	inactive	15.8	inactive	inactive	inactive	12	inactive	inactive								MIC (Candida albicans [1]): 150 µg/mL (≈ 443 µM); MIC (Candida albicans [2]): inactive; MIC (Pichia kudriavzevii; MTCC 3020, 24 h): 150 µg/mL (≈ 443 µM); MIC ([Candida] aaseri [3]; Yamadazyma aaseri, MTCC 1962, 24 h): 300 µg/mL (≈ 886 µM); MIC (Candida albicans [4]): inactive; MIC (Candida albicans [6]): inactive; MIC (Candida albicans [7]): 150 µg/mL (≈ 443 µM); MIC (Bacillus subtilis; MTCC 121, 24 h): 300 µg/mL (≈ 886 µM); MIC (Candida albicans [8]): 150 µg/mL (≈ 443 µM); MIC (Candida albicans [9]): 300 µg/mL (≈ 886 µM); MIC (Nakaseomyces glabratus [10]; MTCC 3019, 24 h): 150 µg/mL (≈ 443 µM); MIC (Candida albicans [11]): 150 µg/mL (≈ 443 µM); MIC (Candida parapsilosis [12]): inactive; MIC (Pichia sporocuriosa; MTCC 4755, 24 h): 300 µg/mL (≈ 886 µM); MIC (Pseudomonas aeruginosa; MTCC 2453, 24 h): 300 µg/mL (≈ 886 µM)
Oc1ccc(/C=N/Cc2cccnc2)cc1	75 (≈ 353 µM)		inactive	inactive		inactive	16.9	inactive			12	inactive	inactive	inactive	inactive	inactive	inactive	inactive	inactive	inactive	Activity (Candida albicans [21]): inactive; Activity (Candida albicans [22]): inactive; MIC (Staphylococcus aureus [13]): inactive; Activity ([Candida] aaseri [23]): inactive; Activity (Candida albicans [24]): inactive
